# Test results from the supplement of paper PMC10307832.
# Legend:
# Assay in all cases: relative viability (nuclei count vs DMSO), 5 days (fraction); higher = more cells survive
# MK-8033 + Linsitinib = compound: Cn1cc(-c2cnc3ccc4ccc(CS(=O)(=O)NCc5ccccn5)cc4c(=O)c3c2)cn1 [MK-8033] + C[C@]1(O)C[C@@H](c2nc(-c3ccc4ccc(-c5ccccc5)nc4c3)c3c(N)nccn32)C1 [Linsitinib] (partner 1 µM)
# Procedure, shortened: (§1)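 Relative viability divides the nuclei count in treated wells by that in vehicle wells. Lung cancer cell lines were seeded in 1536-well plates, dosed by pin tool the next day, and fixed and stained after 5 days in one step with final 0.05% Triton X-100, 1% formaldehyde and 1 ug/ml Hoechst. Dosing was a single drug or a fixed anchor-drug dose plus five library-drug doses (not always all listed) in √10 steps, and values are medians of duplicate plates imaged at 4×.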
# Irinotecan + Lapatinib = compound: CCc1c2c(nc3ccc(OC(=O)N4CCC(N5CCCCC5)CC4)cc13)-c1cc3c(c(=O)n1C2)COC(=O)[C@]3(O)CC [Irinotecan] + CS(=O)(=O)CCNCc1ccc(-c2ccc3ncnc(Nc4ccc(OCc5cccc(F)c5)c(Cl)c4)c3c2)o1 [Lapatinib] (partner 2 µM)
# Procedure, shortened: as §1
# RU-SKI 43 + Pictilisib = compound: CC[C@@H](C)CNCC(=O)N1CCC2=C([C@@H]1COC3=CC=CC(=C3)C)C=CS2 [RU-SKI 43] + CS(=O)(=O)N1CCN(Cc2cc3nc(-c4cccc5[nH]ncc45)nc(N4CCOCC4)c3s2)CC1 [Pictilisib] (partner 1 µM)
# Procedure, shortened: as §1
# MK-8033 + Navitoclax = compound: Cn1cc(-c2cnc3ccc4ccc(CS(=O)(=O)NCc5ccccn5)cc4c(=O)c3c2)cn1 [MK-8033] + CC1(C)CCC(c2ccc(Cl)cc2)=C(CN2CCN(c3ccc(C(=O)NS(=O)(=O)c4ccc(N[C@H](CCN5CCOCC5)CSc5ccccc5)c(S(=O)(=O)C(F)(F)F)c4)cc3)CC2)C1 [Navitoclax] (partner 0.5 µM)
# Procedure, shortened: as §1
Cell Line,relative viability (MK-8033 + Linsitinib; first compound 0.02 µM),relative viability (MK-8033 + Linsitinib; first compound 0.06325 µM),relative viability (MK-8033 + Linsitinib; first compound 0.2 µM),relative viability (MK-8033 + Linsitinib; first compound 0.6325 µM),relative viability (MK-8033 + Linsitinib; first compound 2 µM),relative viability (Irinotecan + Lapatinib; first compound 0.6325 µM),relative viability (Irinotecan + Lapatinib; first compound 2 µM),relative viability (Irinotecan + Lapatinib; first compound 6.325 µM),relative viability (Irinotecan + Lapatinib; first compound 20 µM),relative viability (RU-SKI 43 + Pictilisib; first compound 0.1 µM),relative viability (RU-SKI 43 + Pictilisib; first compound 0.3162 µM),relative viability (RU-SKI 43 + Pictilisib; first compound 1 µM),relative viability (RU-SKI 43 + Pictilisib; first compound 3.162 µM),relative viability (RU-SKI 43 + Pictilisib; first compound 10 µM),relative viability (MK-8033 + Navitoclax; first compound 0.02 µM),relative viability (MK-8033 + Navitoclax; first compound 0.06325 µM),relative viability (MK-8033 + Navitoclax; first compound 0.2 µM),relative viability (MK-8033 + Navitoclax; first compound 0.6325 µM),relative viability (MK-8033 + Navitoclax; first compound 2 µM)
NCI-H358,0.826,0.704,0.731,0.658,0.651,0.406,0.47,0.327,0.21,0.291,0.315,0.332,0.336,0.286,,,,,
NCI-H1395,1.09,1.05,1.08,1.03,0.892,,0.732,0.531,0.361,0.607,0.574,0.668,0.58,0.542,1.38,1.02,1.04,1.15,1.07
NCI-H1993,0.773,0.766,0.73,0.751,0.687,0.802,0.76,0.671,0.458,0.718,0.597,0.769,0.964,0.719,0.866,0.781,0.859,0.83,0.708
CAL-12T,0.738,0.861,0.72,0.903,0.771,0.71,0.543,0.475,0.442,0.772,0.334,0.624,0.397,0.461,1.19,1.2,1.15,0.92,1.28
